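Tested at 5 concentrations; 48 h exposure; 96-well plates; endpoints linearly interpolated, else capped at highest concentration. GI50: concentration for 50% inhibition of growth.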 Activity calls are given as the source filed them. Rule as the data show it: active = GI50 up to about 1.1 µM and inactive = higher.
Legend:
Assay in all cases: inhibition of tumour cell growth, NCI panel, 48 h
CCRF-CEM = test system: CCRF-CEM
SK-MEL-2 = test system: SK-MEL-2
NCI-H522 = test system: NCI-H522
OVCAR-5 = test system: OVCAR-5
K562 = test system: K562
SN12C = test system: SN12C
ACHN = test system: ACHN
DU-145 = test system: DU-145
M14 = test system: M14
UACC-62 = test system: UACC-62
HCT-116 = test system: HCT-116
HOP-92 = test system: HOP-92
HT-29 = test system: HT-29
HCC 2998 = test system: HCC 2998
OVCAR-4 = test system: OVCAR-4
NCI-H226 = test system: NCI-H226
A549 = test system: A549
SF-539 = test system: SF-539
NCI-H460 = test system: NCI-H460
SNB-75 = test system: SNB-75
HOP-62 = test system: HOP-62
SK-MEL-28 = test system: SK-MEL-28
U-251 = test system: U-251
LOX IMVI = test system: LOX IMVI
NCI-H23 = test system: NCI-H23
SK-MEL-5 = test system: SK-MEL-5
SNB-19 = test system: SNB-19
EKVX = test system: EKVX
MOLT-4 = test system: MOLT-4
SW-620 = test system: SW-620
OVCAR-3 = test system: OVCAR-3
MCF7 = test system: MCF7
UO-31 = test system: UO-31
UACC-257 = test system: UACC-257
MDA-N = test system: MDA-N
RXF 393 = test system: RXF 393
SK-OV-3 = test system: SK-OV-3
SF-295 = test system: SF-295
MDA-MB-435 = test system: MDA-MB-435
IGROV-1 = test system: IGROV-1
PC-3 = test system: PC-3
Malme-3M = test system: Malme-3M
BT-549 = test system: BT-549
TK-10 = test system: TK-10
KM12 = test system: KM12
T47D = test system: T47D
OVCAR-8 = test system: OVCAR-8
HCT-15 = test system: HCT-15
MDA-MB-231 = test system: MDA-MB-231
NCI/ADR-RES = test system: NCI/ADR-RES
COLO 205 = test system: COLO 205
CAKI-1 = test system: CAKI-1
Hs-578T = test system: Hs-578T
SF-268 = test system: SF-268
786-0 = test system: 786-0
RPMI-8226 = test system: RPMI-8226
HL-60 = test system: HL-60
A498 = test system: A498
SR = test system: SR

Measured: GI50

COC(=O)c1ccc(C)cc1CC1Cc2cccc(C)c2C1=O (stereo not given)
inactive: CCRF-CEM 4.73 µM | SK-MEL-2 4.34 µM | NCI-H522 2.37 µM | OVCAR-5 14 µM | K562 2.77 µM | SN12C 10.2 µM | ACHN 18.8 µM | DU-145 11.9 µM | M14 3.93 µM | UACC-62 9.57 µM | HCT-116 3.68 µM | HOP-92 16 µM | HT-29 2.42 µM | HCC 2998 9.59 µM | OVCAR-4 19.2 µM | NCI-H226 3.83 µM | A549 6.58 µM | SF-539 4.02 µM | NCI-H460 4.89 µM | SNB-75 5.02 µM | HOP-62 17.9 µM | SK-MEL-28 7.41 µM | U-251 3.87 µM | LOX IMVI 2.88 µM | NCI-H23 11.1 µM | SK-MEL-5 3.59 µM | SNB-19 4.4 µM | EKVX 2.94 µM | MOLT-4 4.11 µM | SW-620 3.72 µM | OVCAR-3 4.95 µM | MCF7 2.38 µM | UO-31 13.4 µM | UACC-257 11.7 µM | MDA-N 1.87 µM | RXF 393 7.87 µM | SK-OV-3 8.05 µM | SF-295 6.49 µM | MDA-MB-435 1.48 µM | IGROV-1 7.96 µM | PC-3 8.34 µM | Malme-3M 5.97 µM | BT-549 9.77 µM | TK-10 12.9 µM | KM12 4.08 µM | T47D 5.85 µM | OVCAR-8 5.08 µM | MDA-MB-231 7.1 µM | NCI/ADR-RES 5.16 µM | COLO 205 4.9 µM | CAKI-1 10.6 µM | Hs-578T 9.77 µM | SF-268 7.98 µM | 786-0 14.6 µM
3.1 µM: HCT-15

CC(C)(C)NC(NC(C)(C)C)=C(C(Cl)=C(Cl)Cl)[N+](=O)[O-]
> 100 µM: HCT-15
inactive: CCRF-CEM > 100 µM | RPMI-8226 > 100 µM | OVCAR-5 > 100 µM | K562 > 100 µM | SN12C > 100 µM | ACHN > 100 µM | DU-145 > 100 µM | M14 > 100 µM | UACC-62 > 100 µM | HCT-116 > 100 µM | HT-29 > 100 µM | HCC 2998 > 100 µM | OVCAR-4 > 100 µM | NCI-H226 > 100 µM | A549 > 100 µM | SF-539 > 100 µM | NCI-H460 > 100 µM | SNB-75 > 100 µM | HOP-62 > 100 µM | SK-MEL-28 > 100 µM | U-251 > 100 µM | LOX IMVI > 100 µM | NCI-H23 > 100 µM | SK-MEL-5 > 100 µM | SNB-19 10.1 µM | EKVX > 100 µM | MOLT-4 > 100 µM | SW-620 > 100 µM | OVCAR-3 > 100 µM | MCF7 > 100 µM | HL-60 > 100 µM | UO-31 42.7 µM | UACC-257 67.6 µM | MDA-N > 100 µM | RXF 393 > 100 µM | SK-OV-3 > 100 µM | SF-295 > 100 µM | A498 > 100 µM | IGROV-1 > 100 µM | PC-3 > 100 µM | Malme-3M > 100 µM | BT-549 > 100 µM | TK-10 > 100 µM | KM12 > 100 µM | T47D > 100 µM | OVCAR-8 > 100 µM | MDA-MB-231 > 100 µM | NCI/ADR-RES > 100 µM | COLO 205 > 100 µM | CAKI-1 > 100 µM | Hs-578T 29.4 µM | SF-268 > 100 µM | 786-0 > 100 µM | SR > 100 µM
